Patent US8389523B2, “Substituted quinoxaline and an agrochemical composition thereof” (Kumiai Chemical Industry Co., Ltd., priority 2007, dated 2013)

How the values were obtained:
Format in all cases: in vivo
Set-up in all cases: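 grade 0 to 5 of growth suppression where 5 is 90% or more and 0 below 10%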
[1] = test system: Echinochloa oryzicola Vasing; test: Herbicidal effects in paddy field soil treatment (Test Example 1); settings: paddy field soil treatment; 1000 g of the active ingredient per hectare; wettable powder added dropwise on water surface; 21st day after treatment
How it was run: (§1)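 Scoring of herbicidal effect took place 21 days after treatment, using a rating scale, on plants grown in a greenhouse. The test compound, formulated as a wettable powder and diluted with water, had been applied dropwise to the flood water at 1000 g active ingredient per hectare, one day after sowing into puddled paddy soil held under 3 cm of water.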

[2] = test system: Monochoria vaginalis (Burm. f.) Presl var. plantaginea (Roxb.) Solms-Laub.; test: as above; settings: paddy field soil treatment; 1000 g of the active ingredient per hectare; wettable powder added dropwise on water surface; 21st day after treatment
How it was run: as §1

[3] = test system: Scirpus juncoides Roxb. var. ohwianus. T. Koyama; test: as above; settings: paddy field soil treatment; 1000 g of the active ingredient per hectare; wettable powder added dropwise on water surface; 21st day after treatment
How it was run: as §1

[4] = test system: Abutilon theophrasti medicus; test: Herbicidal effects in upland field soil treatment (Test Example 2); settings: 1000 g active ingredient per hectare, 21st day after treatment, criteria of Table 138
How it was run: (§2)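 Herbicidal effect was rated visually against set criteria on the 21st day after a pre-emergence soil-surface spray of diluted wettable powder delivering 1000 g active ingredient per hectare (1000 L/ha). Seeds had been sown and covered in upland field soil; plants grew in a greenhouse.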

Amaranthus viridis L. [5] = test: as above; settings: 1000 g active ingredient per hectare, 21st day after treatment, criteria of Table 138
How it was run: as §2

[6] = test system: Abutilon theophrasti medicus; test: Herbicidal effects in upland field foliar treatment (Test Example 3); settings: 1000 g active ingredient per hectare, 14th day after treatment, criteria of Table 138
How it was run: (§3)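 Herbicidal activity is rated visually on a fixed scale 14 days after foliar application. Plants raised from seed in upland field soil for two weeks under glass receive a water dilution of a wettable powder at 1000 g a.i. per hectare in 1000 L/ha.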

Amaranthus viridis L. [7] = test: as above; settings: 1000 g active ingredient per hectare, 14th day after treatment, criteria of Table 138
How it was run: as §3

[8] = test system: Echinochloa crus-galli (L.) P. Beauv. var. crus-galli; test: as above; settings: 1000 g active ingredient per hectare, 14th day after treatment, criteria of Table 138
How it was run: as §3

| SMILES | Herbicidal effects index, Echinochloa oryzicola Vasing [1] | Herbicidal effects index, Monochoria vaginalis (Burm. f.) Presl var. plantaginea (Roxb.) Solms-Laub. [2] | Herbicidal effects index, Scirpus juncoides Roxb. var. ohwianus. T. Koyama [3] | herbicidal effect (index) on Abutilon theophrasti medicus [4] | herbicidal effect (index) on Amaranthus viridis L. (Amaranthus viridis L. [5]) | herbicidal effect (index) on Abutilon theophrasti medicus [6] | herbicidal effect (index) on Amaranthus viridis L. (Amaranthus viridis L. [7]) | herbicidal effect (index) on Echinochloa crus-galli (L.) P. Beauv. var. crus-galli [8] |
| --- | --- | --- | --- | --- | --- | --- | --- | --- |
| Cc1cccc(-n2c(=O)c(C(=O)C3=C(O)CCCC3=O)nc3ccccc32)n1 [I-173, 3-(2-hydroxy-6-oxo-1-cyclohexenecarbonyl)-1-(6-methyl-2-pyridyl)-quinoxalin-2 (1H)-one] | 5 | 5 | 5 | 5 | 5 | 5 | 5 | 5 |
| O=C1CCCC(O)=C1C(=O)c1nc2ccccc2n(-c2ccc(F)cn2)c1=O [I-176] | 5 | 5 | 5 | 5 | 5 | 5 | 5 | 5 |
| O=C1CCCC(O)=C1C(=O)c1nc2ccccc2n(-c2ccc(Cl)cn2)c1=O [I-177] | 5 | 5 | 5 | 5 | 5 | 5 | 5 | 5 |
| O=C1CCCC(O)=C1C(=O)c1nc2ccccc2n(-c2ccc(C(F)(F)F)cn2)c1=O [I-179] | 5 | 5 | 5 | 5 | 5 | 5 | 5 | 5 |
| COc1ccc(-n2c(=O)c(C(=O)C3=C(O)CCCC3=O)nc3ccccc32)nc1 [I-180] | 4 | 5 | 5 | 5 | 5 | 5 | 5 | 4 |
| Cc1ccnc(-n2c(=O)c(C(=O)C3=C(O)CCCC3=O)nc3ccccc32)c1 [I-182] | 5 | 5 | 5 | 5 | 5 | 5 | 5 | 5 |
| O=C1CCCC(O)=C1C(=O)c1nc2ccccc2n(-c2cccnc2)c1=O [I-185] | 5 | 5 | 5 | 5 | 5 | 5 | 5 | 5 |
| COc1ccc(-n2c(=O)c(C(=O)C3=C(O)CCCC3=O)nc3ccccc32)cn1 [I-189] | 5 | 5 | 5 | 5 | 5 | 5 | 5 | 4 |
| COc1cc(OC)nc(-n2c(=O)c(C(=O)C3=C(O)CCCC3=O)nc3ccccc32)n1 [I-197] | 5 | 5 | 5 | 5 | 5 | 5 | 5 | 5 |
| O=C1CCCC(O)=C1C(=O)c1nc2ccccc2n(-c2cnccn2)c1=O [I-199] | 5 | 5 | 5 | 5 | 5 | 5 | 5 | 5 |
| O=C1CCCC(O)=C1C(=O)c1nc2ccccc2n(-c2ccc3c(c2)CCO3)c1=O [I-201] | 5 | 5 | 5 | 4 | 5 | 4 | 5 | 5 |
| O=C1CCCC(O)=C1C(=O)c1nc2ccccc2n(-c2ccc3c(c2)OCO3)c1=O [I-202, 1-(benzo[d][1,3]dioxol-5-yl)-3-(2-hydroxy-6-oxo-1-cyclohexenecarbonyl)-quinoxalin-2(1H)-one] | 5 | 5 | 5 | 4 | 5 | 5 | 5 | 4 |
| O=C1CCCC(O)=C1C(=O)c1nc2ccccc2n(-c2ccc3c(c2)OC(F)(F)O3)c1=O [I-207] | 4 | 5 | 5 | 5 | 5 | 5 | 5 | 5 |
| O=C1CCCC(O)=C1C(=O)c1nc2ccccc2n(CC2CCCO2)c1=O (stereo not shown) [I-211] | 4 | 5 | 5 | 5 | 5 | 5 | 5 | 5 |
